One experiment addresses DNMT1 (Homo sapiens, UniProt P26358). In words: DNMT1 biochemical activity, breaklight assay and/or SPA assay.
The subject of experiment [1] is erythroid progenitor cells (EPCs). The experiment in a line: Fetal hemoglobin (HbF) ELISA in day 7 erythroid progenitor cells.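 Also: for fetal hemoglobin induction normalized to vehicle-treated cells.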 The conditions noted are these: Homo sapiens, Erythroid progenitor cell, HbF ELISA, day 7 EPCs, 5 days; read-out: EPC ELISA (pEC50 category) (converted). Type of experiment: cell-based, human. Put shortly: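 CD34+-derived EPCs, 1,000 cells/well, rhEPO 3 U/mL; Compound A 22-pt series, […]; 5 d, 37° C, 5% CO2. Freeze-thaw lysis, anti-HbF capture + HRP anti-HbF, TMB, OD450. Normalized to DMSO wells.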
(In general: ELISA stands for enzyme-linked immunosorbent assay.)

[2] abbreviates: binned activity in either the breaklight or the SPA assay.
[3] abbreviates: breaklight assay and/or SPA assay, repeated experimental runs, read-out: average pIC50 against DNMT1 (converted).
[4] abbreviates: binned activity in either the breaklight or the SPA assay, read-out: DNMT1 BioChemical (pIC50 category) (converted).

Structures can show the parent of a compound that is named as a salt. Where two headings read alike, the source gives them in different places.

Sequence of DNMT1 (P26358 whole entry, looked up): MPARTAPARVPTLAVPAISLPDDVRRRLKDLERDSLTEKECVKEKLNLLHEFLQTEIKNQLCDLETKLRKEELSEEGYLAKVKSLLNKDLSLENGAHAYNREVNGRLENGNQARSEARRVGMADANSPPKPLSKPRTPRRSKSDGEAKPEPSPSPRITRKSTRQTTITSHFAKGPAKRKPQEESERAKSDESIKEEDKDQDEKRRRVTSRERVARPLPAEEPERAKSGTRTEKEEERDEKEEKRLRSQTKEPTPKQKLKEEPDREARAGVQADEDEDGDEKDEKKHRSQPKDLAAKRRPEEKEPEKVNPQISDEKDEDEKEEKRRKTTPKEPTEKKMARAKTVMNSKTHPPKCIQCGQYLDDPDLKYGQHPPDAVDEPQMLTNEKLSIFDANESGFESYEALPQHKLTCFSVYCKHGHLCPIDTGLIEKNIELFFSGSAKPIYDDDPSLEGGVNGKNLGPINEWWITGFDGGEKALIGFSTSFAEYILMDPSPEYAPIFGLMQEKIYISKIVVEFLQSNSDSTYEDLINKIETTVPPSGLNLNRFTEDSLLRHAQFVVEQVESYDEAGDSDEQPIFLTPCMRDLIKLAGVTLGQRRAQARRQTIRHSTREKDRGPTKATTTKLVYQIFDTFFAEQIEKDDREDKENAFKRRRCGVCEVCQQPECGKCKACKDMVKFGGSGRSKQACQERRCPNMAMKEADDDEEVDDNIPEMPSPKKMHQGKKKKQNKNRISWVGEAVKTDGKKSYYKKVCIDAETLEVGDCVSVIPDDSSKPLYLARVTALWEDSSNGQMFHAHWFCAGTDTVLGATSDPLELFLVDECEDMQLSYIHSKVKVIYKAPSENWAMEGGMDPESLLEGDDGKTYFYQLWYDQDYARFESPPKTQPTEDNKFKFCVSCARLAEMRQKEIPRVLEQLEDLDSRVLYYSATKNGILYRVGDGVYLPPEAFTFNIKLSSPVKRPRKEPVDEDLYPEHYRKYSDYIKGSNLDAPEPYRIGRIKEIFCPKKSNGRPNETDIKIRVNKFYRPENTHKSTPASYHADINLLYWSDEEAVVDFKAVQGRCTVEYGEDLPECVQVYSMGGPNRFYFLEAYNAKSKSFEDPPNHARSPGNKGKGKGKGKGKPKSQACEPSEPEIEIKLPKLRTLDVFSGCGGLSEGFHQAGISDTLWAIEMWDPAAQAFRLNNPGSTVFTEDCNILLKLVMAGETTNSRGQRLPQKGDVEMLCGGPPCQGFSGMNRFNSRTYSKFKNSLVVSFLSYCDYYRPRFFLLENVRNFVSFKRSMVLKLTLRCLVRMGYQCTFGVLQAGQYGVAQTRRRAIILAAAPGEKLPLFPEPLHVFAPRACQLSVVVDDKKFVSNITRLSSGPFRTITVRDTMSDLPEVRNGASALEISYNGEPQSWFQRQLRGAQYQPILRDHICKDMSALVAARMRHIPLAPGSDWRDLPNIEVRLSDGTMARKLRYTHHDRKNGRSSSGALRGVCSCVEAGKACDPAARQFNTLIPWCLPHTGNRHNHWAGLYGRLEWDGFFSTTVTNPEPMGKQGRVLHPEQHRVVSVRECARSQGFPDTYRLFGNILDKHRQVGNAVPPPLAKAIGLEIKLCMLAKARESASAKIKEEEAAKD

Consider `CCc1c(C#N)c(SC(C(N)=O)c2ccccc2)nc(N2CCO[C@H](CNC(=O)C(C)(C)N)C2)c1C#N` (stereo partly drawn) [Example 581, 2-amino-N-(((2R)-4-(6-((2-amino-2-oxo-1-phenylethyl)thio)-3,5-dicyano-4-ethylpyridin-2-yl)morpholin-2-yl)methyl)-2-methylpropanamide], for which the “DNMT1 BioChemical (pIC50 category)” value at DNMT1 (setting [2]) was “D (Category D: ≥6.5)”. Moreover, the EC50 in experiment [1] is below 316 nM.

Regarding `CCc1c(C#N)c(S[C@@H](C(N)=O)c2ccccc2)nc(N(C)CCO)c1C#N` (single isomer, unassigned) [Example 431], on DNMT1 (setting [2]), the “DNMT1 BioChemical (pIC50 category)” value is reported as “D (Category D: ≥6.5)”. The EC50 in experiment [1] was below 316 nM.

As for `CCc1c(C#N)c(SCc2ccc(CNC(=O)CNC)cc2)nc(N2CCCN(C)CC2)c1C#N` [Example 358, N-(4-(((3,5-Dicyano-4-ethyl-6-(4-methyl-1,4-diazepan-1-yl)pyridin-2-yl)thio)methyl)benzyl)-2-(methylamino)acetamide], the “DNMT1 BioChemical (pIC50 category)” value at DNMT1 (setting [2]) is recorded as “D (Category D: ≥6.5)”. In addition, the EC50 in experiment [1] is above 31600 nM.

In the case of `CCc1c(C#N)c(SC(C(N)=O)c2ccccc2)nc(N2CCC(NCC(C)(C)O)CC2)c1C#N` (stereo not drawn) [Example 447, 2-((3,5-dicyano-4-ethyl-6-(4-((2-hydroxy-2-methylpropyl)amino)piperidin-1-yl)pyridin-2-yl)thio)-2-phenylacetamide], the “DNMT1 BioChemical (pIC50 category)” value on DNMT1 (setting [2]) is “D (Category D: ≥6.5)”. The EC50 in experiment [1] was below 316 nM.

For `CCc1c(C#N)c(SC(C(N)=O)c2ccccc2)nc(N2CCC(NCC(C)(C)C)C(F)C2)c1C#N` (stereo not drawn) [Example 409, 2-((3,5-dicyano-4-ethyl-6-(3-fluoro-4-A(neopentylamino)piperidin-1-yl)pyridin-2-yl)thio)-2-phenylacetamide], the “DNMT1 BioChemical (pIC50 category)” value at DNMT1 (setting [2]) is reported as “D (Category D: ≥6.5)”. Besides, on DNMT1 (breaklight assay and/or SPA assay, repeated experimental runs), the “average pIC50 against DNMT1” value is above 6.5. On DNMT1 (setting [3]), the IC50 is 158 nM. For the same compound, the EC50 in experiment [1] was below 316 nM.

For the compound `CCc1c(C#N)c(SCc2cnn(CCO)c2)nc(N2CCC(N)CC2)c1C#N` [Example 363], the IC50 at DNMT1 (setting [4]) was 316 to 1000 nM. The EC50 in experiment [1] was 1000 to 31600 nM.

Consider `N#Cc1c(SC(C(N)=O)c2ccccc2)nc(N2CCC(OCCN)CC2)c(C#N)c1C1CC1` (stereo not drawn) [Example 656, 2-((6-(4-(2-aminoethoxy)piperidin-1-yl)-3,5-dicyano-4-cyclopropylpyridin-2-yl)thio)-2-phenylacetamide], for which the “DNMT1 BioChemical (pIC50 category)” value at DNMT1 (setting [2]) is “D (Category D: ≥6.5)”. Besides, the EC50 in experiment [1] was 1000 to 31600 nM.

For `CCc1c(C#N)c(SC(C(N)=O)c2ccccc2)nc(N2CCC(NCC(N)=O)CC2)c1C#N` (stereo not drawn) [Example 393, 2-((6-(4-((2-Amino-2-oxoethyl)amino)piperidin-1-yl)-3,5-dicyano-4-ethylpyridin-2-yl)thio)-2-phenylacetamide], the “DNMT1 BioChemical (pIC50 category)” value at DNMT1 (setting [2]) is reported as “D (Category D: ≥6.5)”. In experiment [1], the EC50 was 316 to 1000 nM.

Take `CCc1c(C#N)c(SC(C(N)=O)c2ccccc2)nc(N(C)CC(=O)N2CC[C@H](CO)C2)c1C#N` (stereo partly drawn) [Example 648, 2-((3,5-dicyano-4-ethyl-6-((2-((S)-3-(hydroxymethyl)pyrrolidin-1-yl)-2-oxoethyl)(methyl)amino)pyridin-2-yl)thio)-2-phenylacetamide]: the “DNMT1 BioChemical (pIC50 category)” value at DNMT1 (setting [2]) is listed as “D (Category D: ≥6.5)”. Also, the EC50 in experiment [1] is below 316 nM.

For the compound `CCc1c(C#N)c(SCc2ccc(N3CCCCS3(=O)=O)cc2)nc(N2CCC(N)CC2)c1C#N` [Example 601, 2-(4-aminopiperidin-1-yl)-6-((4-(1,1-dioxido-1,2-thiazinan-2-yl)benzyl)thio)-4-ethylpyridine-3,5-dicarbonitrile], the “DNMT1 BioChemical (pIC50 category)” value on DNMT1 (setting [2]) is on record as “D (Category D: ≥6.5)”. For the same compound, in experiment [1], the EC50 is above 31600 nM.

`CCc1c(C#N)c(SC(C(N)=O)c2cccc(F)c2F)nc(N2CC[C@H](O)C2)c1C#N` (stereo partly drawn) [Example 429]: the IC50 at DNMT1 (setting [4]) was 316 to 1000 nM. In addition, the EC50 in experiment [1] was 316 to 1000 nM.

As for `CN1CCN(c2nc(SC(C(N)=O)c3ccccc3)c(C#N)c(C3CC3)c2C#N)CCC1=O` (stereo not drawn) [Example 109, 2-{[3,5-Dicyano-4-cyclopropyl-6-(4-methyl-5-oxo-1,4-diazepan-1-yl)pyridin-2-yl]sulfanyl}-2-phenylacetamide], the IC50 at DNMT1 (setting [4]) was 316 to 1000 nM; on DNMT1 (setting [3]), at least 1000 nM. Also, in experiment [1], the EC50 is below 316 nM.

In the case of `CCc1c(C#N)c(SCc2ccc(CNC(=O)CO)cc2)nc(N2CCC(O)C2)c1C#N` (stereo not drawn) [Example 367], the IC50 on DNMT1 (setting [4]) is 316 to 1000 nM. Besides, in experiment [1], the EC50 is 1000 to 31600 nM.

In the case of `N#Cc1c(SC(C(N)=O)c2ccccc2)nc(N2CCC(NCC(N)=O)CC2)c(C#N)c1C1CC1` (stereo not drawn) [Example 667, 2-((6-(4-((2-amino-2-oxoethyl)amino)piperidin-1-yl)-3,5-dicyano-4-cyclopropylpyridin-2-yl)thio)-2-phenylacetamide], the IC50 on DNMT1 (setting [4]) was below 316 nM. Further, the EC50 in experiment [1] was 1000 to 31600 nM.

Turning to `CCc1c(C#N)c(SC(C(N)=O)c2ccc(F)cc2)nc(N2CCN(C(C)(C)CO)CC2)c1C#N` (stereo not drawn) [Example 222, 2-((3,5-Dicyano-4-ethyl-6-(4-(1-hydroxy-2-methylpropan-2-yl)piperazin-1-yl)pyridin-2-yl)thio)-2-(4-fluorophenyl)acetamide], the IC50 on DNMT1 (setting [4]) was 1000 to 31600 nM. Further, the EC50 in experiment [1] was 316 to 1000 nM.

Consider `CCc1c(C#N)c(SC(C(N)=O)c2ccccc2)nc(N(C)CCCN)c1C#N` (stereo not drawn) [Example 670, 2-((6-((3-aminopropyl)(methyl)amino)-3,5-dicyano-4-ethylpyridin-2-yl)thio)-2-phenylacetamide hydrochloride], for which the “DNMT1 BioChemical (pIC50 category)” value on DNMT1 (setting [2]) is reported as “D (Category D: ≥6.5)”. Also, in experiment [1], the EC50 was below 316 nM.

With `CCc1c(C#N)c(SC(C(N)=O)c2ccc(F)cc2F)nc(N2CCC(N(C)C)CC2)c1C#N` (stereo not drawn) [Example 210, 2-((3,5-Dicyano-6-(4-(dimethylamino)piperidin-1-yl)-4-ethylpyridin-2-yl)thio)-2-(2,4-difluorophenyl)acetamide], at DNMT1 (setting [2]), the “DNMT1 BioChemical (pIC50 category)” value is given as “D (Category D: ≥6.5)”. Moreover, the EC50 in experiment [1] is below 316 nM.

With `CCc1c(C#N)c(SC(C(N)=O)c2ccccc2)nc(N(C)CC(=O)N2CC[C@@H](O)C2)c1C#N` (stereo partly drawn) [Example 613, 2-((3,5-dicyano-4-ethyl-6-((2-((R)-3-hydroxypyrrolidin-1-yl)-2-oxoethyl)(methyl)amino)pyridin-2-yl)thio)-2-phenylacetamide], the “DNMT1 BioChemical (pIC50 category)” value at DNMT1 (setting [2]) is “D (Category D: ≥6.5)”. Further, in experiment [1], the EC50 is below 316 nM.

In the case of `CCc1c(C#N)c(SC(C(N)=O)c2ccccc2)nc(N2CCC(ONC(=N)N)CC2)c1C#N` (stereo not drawn) [Example 634, 2-((3,5-dicyano-4-ethyl-6-(4-(guanidinooxy)piperidin-1-yl)pyridin-2-yl)thio)-2-phenylacetamide], the “DNMT1 BioChemical (pIC50 category)” value on DNMT1 (setting [2]) is “D (Category D: ≥6.5)”. In addition, the EC50 in experiment [1] was 1000 to 31600 nM.

For the compound `CCc1c(C#N)c(SC(C(N)=O)c2ccccc2)nc(N2CCC[C@@H](CNCC(C)(C)C)C2)c1C#N` (stereo partly drawn) [Example 568, 2-((3,5-dicyano-4-ethyl-6-((S)-3-((neopentylamino)methyl)piperidin-1-yl)pyridin-2-yl)thio)-2-phenylacetamide], the “DNMT1 BioChemical (pIC50 category)” value on DNMT1 (setting [2]) is “D (Category D: ≥6.5)”. In addition, in experiment [1], the EC50 was below 316 nM.

With `CCc1c(C#N)c(SC(C(N)=O)c2ccccc2)nc(N(C)CCNCCOC)c1C#N` (stereo not drawn) [Example 491, 2-((3,5-dicyano-4-ethyl-6-((2-((2-methoxyethyl)amino)ethyl)(methyl)amino)pyridin-2-yl)thio)-2-phenylacetamide], the “DNMT1 BioChemical (pIC50 category)” value at DNMT1 (setting [2]) was “D (Category D: ≥6.5)”. The EC50 in experiment [1] was below 316 nM.

In the case of `CCc1c(C#N)c(SC(C(N)=O)c2ccccc2)nc(N2CCC(O)(C(N)=O)CC2)c1C#N` (stereo not drawn) [Example 258, 1-(6-((2-Amino-2-oxo-1-phenylethyl)thio)-3,5-dicyano-4-ethylpyridin-2-yl)-4-hydroxy piperidine-4-carboxamide], the IC50 on DNMT1 (setting [4]) is 316 to 1000 nM. For the same compound, the EC50 in experiment [1] was 1000 to 31600 nM.

Take `CCc1c(C#N)c(SC(C(N)=O)c2ccccc2)nc(N2C[C@@H](O)[C@@H](O)C2)c1C#N` (stereo partly drawn) [Example 219, 2-((3,5-Dicyano-6-((3S,4R)-3,4-dihydroxypyrrolidin-1-yl)-4-ethylpyridin-2-yl)thio)-2-phenylacetamide]: the IC50 at DNMT1 (setting [4]) is 316 to 1000 nM. In addition, in experiment [1], the EC50 was 1000 to 31600 nM.

For `CCc1c(C#N)c(SC(C(N)=O)c2ccccc2)nc(N2CCN(Cc3ncco3)CC2)c1C#N` (stereo not drawn) [Example 176, 2-((3,5-Dicyano-4-ethyl-6-(4-(oxazol-2-ylmethyl)piperazin-1-yl)pyridin-2-yl)thio)-2-phenylacetamide], the IC50 on DNMT1 (setting [4]) is 316 to 1000 nM. Further, in experiment [1], the EC50 is 316 to 1000 nM.

`CCc1c(C#N)c(SC(C(N)=O)c2ccccc2)nc(N(C)CCN2CC[C@H](O)C2)c1C#N` (stereo partly drawn) [Example 486, 2-(3,5-dicyano-4-ethyl-6-((2-((S)-3-hydroxypyrrolidin-1-yl)ethyl)(methyl)amino)pyridin-2-ylthio)-2-phenylacetamide]: on DNMT1 (setting [2]), the “DNMT1 BioChemical (pIC50 category)” value is given as “D (Category D: ≥6.5)”. For the same compound, in experiment [1], the EC50 was below 316 nM.

Regarding `CCc1c(C#N)c(SC(C(N)=O)c2ccccc2)nc(N2CCNC(C)CC2)c1C#N` (stereo not drawn) [Example 67, 2-{[3,5-dicyano-4-ethyl-6-(5-methyl-1,4-diazepan-1-yl)pyridin-2-yl]sulfanyl}-2-phenylacetamide], the “DNMT1 BioChemical (pIC50 category)” value on DNMT1 (setting [2]) is reported as “D (Category D: ≥6.5)”. In addition, in experiment [1], the EC50 is below 316 nM.

For `CCc1c(C#N)c(SC(C(N)=O)c2ccncc2F)nc(N2CCCN(C)CC2)c1C#N` (stereo not drawn) [Example 248, 2-((3,5-Dicyano-4-ethyl-6-(4-methyl-1,4-diazepan-1-yl)pyridin-2-yl)thio)-2-(3-fluoropyridin-4-yl)acetamide], on DNMT1 (setting [4]), the IC50 was 316 to 1000 nM. Further, the EC50 in experiment [1] is above 31600 nM.

The values are drawn from US10975056B2 (GlaxoSmithKline Intellectual Property Development Limited, priority 2016, dated 2021).
